Columns and labels:
[1] = Stability of DHEA polymorph preparations under ambient conditions; type: physicochemical
[2] = Oral uptake and absorption of DHEA polymorph preparations; conditions: oral administration
[3] = system: systemic lupus erythematous (SLE) patients; experiment: Clinical trial data, SLE patients treated with DHEA, BMD; type: in vivo, human; conditions: DHEA 200 mg daily, alone or in combination with prednisone
From the text: Its role in fetal physiology is poorly understood, but it is thought to serve as a precursor for other steroids, leading to androgen and estrogenic steroids. […] However, the administration of DHEA to humans to prevent bone loss or increase bone density is not a recognized treatment for osteoporosis/osteopenia by the medical community.

ovarectomized rats = conditions: administration of DHEA to ovarectomized rats; cited from earlier work
[4] = system: postmenopausal women with low bone mass; conditions: cited from earlier work
[5] = system: Postmenopausal women with osteoporosis; conditions: cited from earlier work
[6] = system: spine bone mineral density (BMD); conditions: analysis of 16 studies; chronic calcitonin treatment; cited from earlier work

C[C@]12CC[C@H](O)CC1=CC[C@@H]1[C@@H]2CC[C@]2(C)C(=O)CC[C@@H]12 [DHEA form II, dehydroepiandrosterone]
stability [1]: stable under ambient conditions | rate of absorption [2]: rapid rate of absorption (greater than the form I polymorph)

C[C@]12CC[C@H](O)CC1=CC[C@@H]1[C@@H]2CC[C@]2(C)C(=O)CC[C@@H]12 [DHEA form I, dehydroepiandrosterone]
stability [1]: highly stable under ambient conditions

C[C@]12CC[C@H](O)CC1=CC[C@@H]1[C@@H]2CC[C@]2(C)C(=O)CC[C@@H]12 [DHEA, dehydroepiandrosterone]
improvement of BMD [3]: only slight improvement of BMD | bone density (ovarectomized rats): increased bone density

NCCCC(O)(P(=O)(O)O)P(=O)(O)O [alendronate]
increases in BMD compared with calcitonin ([4]; alendronate 10 mg, LS and HT at 6 and 12 months (p<0.001), FN at 12 months (p=0.003)): significantly greater increases in BMD than did calcitonin | increases in BMD compared with calcitonin ([5]; alendronate 10 mg, LS and HT at 6 and 12 months (p<0.001), FN at 12 months (p=0.001)): significantly greater increases in BMD than did calcitonin

calcitonin
mean increase in spine bone mineral density (BMD) [6]: 1.97% | BMD changes compared with placebo ([4]; calcitonin 200 IU daily, LS, HT or FN at 6 or 12 months): not statistically different from placebo | increases in BMD in total femur and lumbar spine ([4]; up to 1 year of therapy, calcitonin 200 IU daily): only modest increases in BMD | BMD changes compared with placebo at FN ([5]; calcitonin 200 IU daily, FN at 6 (p=0.003) and 12 months (p=0.008)): statistically different from placebo | BMD changes compared with placebo at LS or HT ([5]; calcitonin 200 IU daily, LS or HT at 6 or 12 months): not significantly different

— US7612034B2, “Treatment of subnormal bone mineral density” (Genelabs Technologies, Inc., priority 1999, dated 2009)
